Biological target: T1, Androgen receptor (AR) (Homo sapiens, UniProt P10275)
T1 construct: endogenous in cells; host or cells: VCaP
T1 sequence (P10275 1-920): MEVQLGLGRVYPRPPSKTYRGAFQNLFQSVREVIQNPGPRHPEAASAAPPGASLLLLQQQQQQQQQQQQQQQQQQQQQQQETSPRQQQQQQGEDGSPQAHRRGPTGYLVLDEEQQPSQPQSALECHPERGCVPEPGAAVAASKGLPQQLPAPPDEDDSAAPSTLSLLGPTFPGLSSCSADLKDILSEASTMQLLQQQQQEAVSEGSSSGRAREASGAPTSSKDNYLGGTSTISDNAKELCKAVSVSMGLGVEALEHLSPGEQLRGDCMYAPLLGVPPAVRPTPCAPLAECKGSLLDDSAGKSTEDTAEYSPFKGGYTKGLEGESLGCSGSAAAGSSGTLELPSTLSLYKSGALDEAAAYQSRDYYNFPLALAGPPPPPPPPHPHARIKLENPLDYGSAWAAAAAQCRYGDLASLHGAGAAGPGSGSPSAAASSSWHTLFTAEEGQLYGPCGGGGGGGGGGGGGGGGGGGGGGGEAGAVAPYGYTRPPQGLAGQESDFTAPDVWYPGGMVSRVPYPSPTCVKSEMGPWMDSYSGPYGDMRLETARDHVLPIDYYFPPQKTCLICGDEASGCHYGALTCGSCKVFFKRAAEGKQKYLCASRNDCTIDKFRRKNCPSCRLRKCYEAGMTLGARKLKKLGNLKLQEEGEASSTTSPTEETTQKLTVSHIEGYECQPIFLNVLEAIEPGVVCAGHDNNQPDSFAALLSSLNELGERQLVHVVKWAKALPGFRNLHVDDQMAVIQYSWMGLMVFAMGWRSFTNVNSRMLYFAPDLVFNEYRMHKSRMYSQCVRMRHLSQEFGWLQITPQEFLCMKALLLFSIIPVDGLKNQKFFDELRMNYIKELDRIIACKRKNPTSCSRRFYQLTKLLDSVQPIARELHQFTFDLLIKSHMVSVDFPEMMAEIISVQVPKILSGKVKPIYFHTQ
Assay: Cellular assay of androgen receptor (AR) degradation (VCaP cells, ELISA)
Format: cell-based
Conditions: for Dmax at 1 µM: 4 h, androgen receptor, VCaP cells, PROTAC concentration 1 μM, relative to DMSO control, read-out: Target protein degradation range; for Androgen receptor (AR) degradation in VCaP cells: @ 1 μM
Method: Protocol of the Cellular Assay of Androgen Receptor (AR) Degradation (VCaP Cells, ELISA).
For detection Cell Signaling PathScan Sandwich Elisa Catalog #12850 Lot 11 was used. VCaP cells were cultured in ATCC DMEM+ATCC FBS and plated 40,000/well 100 μl/well in RPMI P/S with 5% CSS Omega (bovine) serum into a 96 well plate. The cells were grown for a minimum of 3 days, dosed with compounds in 0.1% DMSO (diluted with 5% CSS) and incubated with aspiration for 4 hours. 100 μl of 1× Cell Signaling lysis buffer #9803 (36 ml dH2O+4 ml Cell Signaling lysis buffer) was added. The incubation was placed on cold room shaker for 10 min at speed 8-9. 5 μl to 100 μl of Diluent was transferred to Elisa plate (0.15 ug/ml-0.075 ug/ml) and stored at 4 C overnight on cold room shaker speed 5 (gentle swirl) and then shaken next morning at 37° C. for 30 min. The preparation was washed 4×200 μl with Elisa wash buffer and aspirated with eight-channel aspirator. 100 μl/well of AR detection Ab was added after which the preparation was covered and shaken at 37° C. for 1 hr. 100 ul TMB was added, and the mixture was shaken for 5 min while under observation. When TMB turned light blue, 100 ul of Stop solution was added, and the mixture was shaken and read at 450 nm. Also read at 562 for background subtraction.

Compound	Dmax at 1 µM [%]	Androgen receptor (AR) degradation in VCaP cells [%]
CN[C@@H](C)C(=O)N[C@H](C(=O)N1CCC[C@H]1C(=O)N[C@H]1c2ccccc2C[C@H]1OCCOCCOCCOc1ccc(N2C(=S)N(c3ccc(C#N)c(C(F)(F)F)c3)C(=O)C2(C)C)cc1)C(C)(C)C [Example 36, (2S)—N-[2-(2-[2-[2-(4-[3-[4-cyano-3-(trifluoromethyl)phenyl]-5,5-dimethyl-4-oxo-2-sulfanylideneimidazolidin-1-yl]phenoxy)ethoxy]ethoxy]ethoxy)-2,3-dihydro-1H-inden-1-yl]-1-[(2S)-3,3-dimethyl-2-[(2S)-2-(methylamino)propanamido]-butanoyl]pyrrolidine-2-carboxamide]	0 to 30	
CN[C@@H](C)C(=O)N[C@H](C(=O)N1CCC[C@H]1C(=O)N[C@H]1c2ccccc2C[C@H]1OCCOCCOc1ccc(N2C(=S)N(c3ccc(C#N)c(C(F)(F)F)c3)C(=O)C2(C)C)cc1)C(C)(C)C [drawing 254, (2S)—N-[(1S,2R)-2-{2-[2-(4-{3-[4-cyano-3-(trifluoromethyl)phenyl]-5,5-dimethyl-4-oxo-2-sulfanylideneimidazolidin-1-yl}phenoxy)ethoxy]ethoxy}-2,3-dihydro-1H-inden-1-yl]-1-[(2S)-3,3-dimethyl-2-[(2S)-2-(methylamino)propanamido]butanoyl]pyrrolidine-2-carboxamide]		29
CN[C@@H](C)C(=O)N[C@H](C(=O)N1CCC[C@H]1C(=O)N[C@H]1c2ccccc2C[C@H]1OCCOCCOCCOCCOc1ccc(C(=O)N[C@H]2C(C)(C)[C@H](Oc3ccc(C#N)c(Cl)c3)C2(C)C)cc1)C(C)(C)C [(2S)-1-[(2S)-3,3-dimethyl-2-[(2S)-2-(methylamino)propanamido]butanoyl]-N-[(1S,2R)-2-{[1-(4-1{[(1r,3r)-3-(3-chloro-4-cyanophenoxy)-2,2,4,4-tetramethylcyclobutyl]carbamoyl}phenyl)-1,4,7,10-tetraoxadodecan-12-yl]oxy}-2,3-dihydro-1H-inden-1-yl]pyrrolidine-2-carboxamide]		33
CN[C@@H](C)C(=O)N[C@H](C(=O)N1CCC[C@H]1C(=O)N[C@H]1c2ccccc2C[C@H]1OCCOCCOc1ccc(N2C(=S)N(c3ccc(C#N)c(C(F)(F)F)c3)C(=O)C2(C)C)cc1)C(C)(C)C [Example 35, (S)—N-((1S,2R)-2-(2-(2-(4-(3-(4-cyano-3-(trifluoromethyl)-phenyl)-5,5-dimethyl-4-oxo-2-thioxoimidazolidin-1-yl)phenoxy)ethoxy)ethoxy)-2,3-dihydro-1H-inden-1-yl)-1-((S)-3,3-dimethyl-2-((S)-2-(methylamino)propanamido)-butanoyl)pyrrolidine-2-carboxamide]	0 to 30	
CN[C@@H](C)C(=O)N[C@H](C(=O)N1CCC[C@H]1c1nc(-c2ccc(OCCOCCOCCNc3ccc(C(=O)N[C@H]4C(C)(C)[C@H](Oc5ccc(C#N)c(Cl)c5)C4(C)C)cc3)c3ccccc23)cs1)C1CCCCC1 [Example 30, 4-[1-(4-[2-[(2S)-1-[(2S)-2-Cyclohexyl-2-[(2S)-2-(methylamino)propanamido]acetyl]pyrrolidin-2-yl]-1,3-thiazol-4-yl]naphthalen-1-yl)-1,4,7-trioxa-10-azadecan-10-yl]-N-[(1r,3r)-3-(3-chloro-4-cyanophenoxy)-2,2,4,4-tetramethylcyclobutyl]benzamide]	0 to 30	
CN[C@@H](C)C(=O)N[C@H](C(=O)N1CCC[C@H]1C(=O)N[C@H]1c2ccccc2C[C@H]1OCCOCCOCCOCCOc1ccc(N2C(=S)N(c3ccc(C#N)c(C(F)(F)F)c3)C(=O)C2(C)C)cc1)C(C)(C)C [Example 37]	0 to 30	
CN[C@@H](C)C(=O)N[C@H](C(=O)N1CCC[C@H]1C(=O)N[C@H]1c2ccccc2C[C@H]1OCCOCCOCCOc1ccc(N2C(=S)N(c3ccc(C#N)c(C(F)(F)F)c3)C(=O)C2(C)C)cc1)C(C)(C)C [drawing 255, (2S)—N-[(1S,2R)-2-(2-{2-[2-(4-{3-[4-cyano-3-(trifluoromethyl)phenyl]-5,5-dimethyl-4-oxo-2-sulfanylideneimidazolidin-1-yl}phenoxy)ethoxy]ethoxy}ethoxy)-2,3-dihydro-1H-inden-1-yl]-1-[(2 S)-3,3-dimethyl-2-[(2S)-2-(methylamino)propanamido]butanoyl]pyrrolidine-2-carboxamide]		9
CN[C@@H](C)C(=O)N[C@H](C(=O)N1CCC[C@H]1C(=O)N[C@H]1c2ccccc2C[C@H]1OCCOCCOCCOCCOc1ccc(N2C(=S)N(c3ccc(C#N)c(C(F)(F)F)c3)C(=O)C2(C)C)cc1)C(C)(C)C [drawing 256, (2S)—N-[(1S,2R)-2-{[1-(4-{3-[4-cyano-3-(trifluoromethyl)phenyl]-5,5-dimethyl-4-oxo-2-sulfanylideneimidazolidin-1-yl}phenyl)-1,4,7,10-tetraoxadodecan-12-yl]oxy}-2,3-dihydro-1H-inden-1-yl]-1-[(2S)-3,3-dimethyl-2-[(2S)-2-(methylamino)propanamido]butanoyl]pyrrolidine-2-carboxamide]		9
CN[C@@H](C)C(=O)N[C@H](C(=O)N1CC[C@@H]2CCN(CCc3ccc(OCCOCCOCCNc4ccc(C(=O)N[C@H]5C(C)(C)[C@H](Oc6ccc(C#N)c(Cl)c6)C5(C)C)cc4)cc3)C[C@@H]21)C1CCCCC1 (mixture of isomers) [Example 32, 4-[1-[4-(2-[1-[(2S)-2-cyclohexyl-2-[(2S)-2-(methylamino)propanamido]acetyl]-octahydro-1H-pyrrolo[2,3-c]pyridin-6-yl]ethyl)phenyl]-1,4,7-trioxa-10-azadecan-10-yl]-N-[(1r,3r)-3-(3-chloro-4-cyanophenoxy)-2,2,4,4-tetramethylcyclobutyl]benzamide]	0 to 30	
CN[C@@H](C)C(=O)N[C@H](C(=O)N1CCC[C@H]1C(=O)N[C@H]1c2ccccc2C[C@H]1OCCOCCOc1ccc(C(=O)N[C@H]2C(C)(C)[C@H](Oc3ccc(C#N)c(Cl)c3)C2(C)C)cc1)C(C)(C)C [Example 38, 1-[3,3-dimethyl-2-[(2S)-2-(methylamino)propanamido]-butanoyl]-N-[(1S,2R)-2-[2-[2-(4-[[(1r,3r)-3-(3-chloro-4-cyanophenoxy)-2,2,4,4-tetramethylcyclobutyl]carbamoyl]phenoxy)ethoxy]ethoxy]-2,3-dihydro-1H-inden-1-yl]pyrrolidine-2-carboxamide]	0 to 30	
CN[C@@H](C)C(=O)N[C@H](C(=O)N1CCC[C@H]1c1nc(-c2ccc(OCCOCCOCCOCCNc3ccc(C(=O)N[C@H]4C(C)(C)[C@H](Oc5ccc(C#N)c(Cl)c5)C4(C)C)cc3)c3ccccc23)cs1)C1CCCCC1 [Example 31, 4-[1-(4-[2-[(2S)-1-[(2S)-2-cyclohexyl-2-[(2S)-2-(methylamino)propanamido]acetyl]pyrrolidin-2-yl]-1,3-thiazol-4-yl]naphthalen-1-yl)-1,4,7,10-tetraoxa-13-azatridecan-13-yl]-N-[(1r,3r)-3-(3-chloro-4-cyanophenoxy)-2,2,4,4-tetramethylcyclobutyl]benzamide]	0 to 30	

Reference: patent US20220162163A1, “ALANINE-BASED MODULATORS OF PROTEOLYSIS AND ASSOCIATED METHODS OF USE” (Arvinas Operations, Inc., priority 2015, published 2022)
